Converted amounts (≈) assume the structure as drawn. Read-outs that look alike come from different tables or passages of the source.
Legend:
Mycobacterium phlei = assay: Antibacterial spectra in vitro, MIC on agar plates; type: cell-based; settings: Mycolicibacterium phlei; IFM No. 2052; glucose (0.5%) agar; 37° C., 24 hours
[1] = tested on: Staphylococcus aureus 209 P; assay: Antibacterial spectra in vitro, MIC on agar plates; type: cell-based; settings: IFM No. 2014, nutrient agar, 37° C., 24 hours
[2] = tested on: Bacillus subtilis PCI 219; assay: Antibacterial spectra in vitro, MIC on agar plates; type: cell-based; settings: PCI219, IFM No. 2060, nutrient agar, 37° C., 24 hours
Bacillus cereus = assay: Antibacterial spectra in vitro, MIC on agar plates; type: cell-based; settings: IFM No. 2058, nutrient agar, 37° C., 24 hours
mouse leukaemia L 1210 = assay: Cytotoxic effect in cell cultures of mouse leukaemia L 1210; type: cell-based; settings: L1210, read-out: ED50 (cytotoxic effect)
Streptococcus faecalis = assay: Antibacterial spectra in vitro, MIC on agar plates; type: cell-based; settings: Enterococcus faecalis; IFM No. 2001; glucose (0.5%) agar; 37° C., 24 hours
Penicillium expansum = assay: Antimicrobial (fungi) MIC on agar plates; type: cell-based; settings: IFM No. 40618, Sabouraud's glucose (2%) agar, 48 hours
mouse leukemia L 1210 = assay: Effect against mouse leukemia L 1210 in BDF1 mice (US National Cancer Research Institute procedure); type: in vivo; settings: for survival effect compared with critical level of effectiveness prescribed by the research institute: 10 micrograms/mouse/day intraperitoneally for one week; for survival effect [T/C×100]: 10 micrograms/mouse/day intraperitoneally for one week from 24 hours after transplantation
Description: In another test, the effect of saframycins Y3 and Yd-1 against mouse leukemia L 1210 was examined by using BDF1 mice according to the procedure as established by the US National Cancer Research Institute.

Shigella dysenteria = assay: Antibacterial spectra in vitro, MIC on agar plates; type: cell-based; settings: IFM No. 3024, nutrient agar, 37° C., 24 hours
Sarcina lutea = assay: Antibacterial spectra in vitro, MIC on agar plates; type: cell-based; settings: Micrococcus luteus; IFM No. 2066; nutrient agar; 37° C., 24 hours
[3] = tested on: Staphylococcus aureus Smith; assay: Antibacterial spectra in vitro, MIC on agar plates; type: cell-based; settings: IFM No. 2018, nutrient agar, 37° C., 24 hours
Brucella abortus = assay: microbe, parasite or virus in culture; type: cell-based; settings: 24 h
Klebsiella pneumoniae = assay: Antibacterial spectra in vitro, MIC on agar plates; type: cell-based; settings: IFM No. 3008, nutrient agar, 37° C., 24 hours
Salmonella typhimurium = assay: Antibacterial spectra in vitro, MIC on agar plates; type: cell-based; settings: Salmonella enterica, IFM No. 3023, nutrient agar, 37° C., 24 hours
Serratia marcescens = assay: Antibacterial spectra in vitro, MIC on agar plates; type: cell-based; settings: IFM No. 3029, nutrient agar, 37° C., 24 hours
[4] = tested on: Trichophyton mentagrophytes; assay: Antimicrobial (fungi) MIC on agar plates; type: cell-based; settings: IFM No. 40134, Sabouraud's glucose (2%) agar
Saccharomyces cerevisiae = assay: Antimicrobial (fungi) MIC on agar plates; type: cell-based; settings: IFM No. 40025, Sabouraud's glucose (2%) agar, 48 hours
[5] = tested on: Ehrlich ascitic tumor cells; assay: Survival of ICR mice inoculated with Ehrlich ascitic tumor cells; type: in vivo; settings: for mice survived: 20 micrograms/mouse/day intraperitoneally for 7 days, from 24 hours after inoculation, 10 mice per group
Procedure: In another test, ICR mice (10 mice per group) were inoculated with Ehrlich ascitic tumor cells. Twenty-four hours after the inoculation the dose of 20 micrograms/mouse/day of saframycin Y3 or 20 micrograms/mouse/day of saframycin Yd-1 was administered intraperitoneally. The administration was continued for 7 days. […] When 5 micrograms/mouse/day of saframycin Y3 or 4 micrograms/mouse/day of Yd-1 were administered, 60-70% of the mice survived for 20 days or more.

Staphylococcus albus = assay: Antibacterial spectra in vitro, MIC on agar plates; type: cell-based; settings: IFM No. 2013, nutrient agar, 37° C., 24 hours
Corynebacterium xeriosis = assay: Antibacterial spectra in vitro, MIC on agar plates; type: cell-based; settings: IFM No. 2057, glucose (0.5%) agar, 37° C., 24 hours
Streptococcus salivarius = assay: Antibacterial spectra in vitro, MIC on agar plates; type: cell-based; settings: IFM No. 2010, glucose (0.5%) agar, 37° C., 24 hours
Rhodotorula glutinus = assay: Antimicrobial (fungi) MIC on agar plates; type: cell-based; settings: IFM No. 40057, Sabouraud's glucose (2%) agar, 48 hours
Staphylococcus citreus = assay: Antibacterial spectra in vitro, MIC on agar plates; type: cell-based; settings: IFM No. 2025, nutrient agar, 37° C., 24 hours
Nocardia asteroides = assay: Antibacterial spectra in vitro, MIC on agar plates; type: cell-based; settings: IFM No. 0006, glucose (0.5%) agar, 37° C., 24 hours
Candida albicans 7N = assay: Antimicrobial (fungi) MIC on agar plates; type: cell-based; settings: IFM No. 40009, Sabouraud's glucose (2%) agar
Aspergillus niger = assay: Antimicrobial (fungi) MIC on agar plates; type: cell-based; settings: IFM No. 40606, Sabouraud's glucose (2%) agar, 48 hours
Escherichia coli F1 = assay: Antibacterial spectra in vitro, MIC on agar plates; type: cell-based; settings: IFM No. 3002, nutrient agar, 37° C., 24 hours
[6] = tested on: Streptococcus pyogenes Cook; assay: Antibacterial spectra in vitro, MIC on agar plates; type: cell-based; settings: IFM No. 2003, glucose (0.5%) agar, 37° C., 24 hours
Procedure: (§1) With respect to the antimicrobial activities of saframycins Y3 and Yd-1, the antibacterial spectra in vitro, as expressed by their minimum inhibitory concentrations (MIC), are shown in Table 2:
(§2) Medium: A=nutrient agar, B=glucose (0.5%) agar, C=Sabouraud's glucose (2%) agar.
(§3) All MIC-values shown in Table 2 are obtained from cultures on agar plates containing varying amounts of the antibiotic tested at temperatures of 37° C. after an incubation period of 24 hours (bacteria), 48 hours (fungi except candida albicans, 37° C., 48 hours, Trichophyton mentagrophytes.

[7] = tested on: Corynebacterium diphtheria; assay: Antibacterial spectra in vitro, MIC on agar plates; type: cell-based; settings: IFM No. 2056, glucose (0.5%) agar, 37° C., 24 hours
Procedure: as §1, §2, §3

Mycobacterium sp. 607 = assay: Antibacterial spectra in vitro, MIC on agar plates; type: cell-based; settings: IFM No. 2051, glucose (0.5%) agar, 37° C., 24 hours
Procedure: as §1, §2, §3

Pseudomonas aeruginosa = assay: Antibacterial spectra in vitro, MIC on agar plates; type: cell-based; settings: IFM No. 3011, nutrient agar, 37° C., 24 hours
Procedure: as §1, §2, §3

Aspergillus oryzae = assay: Antimicrobial (fungi) MIC on agar plates; type: cell-based; settings: IFM No. 40601, Sabouraud's glucose (2%) agar, 48 hours
Mycobacterium avium = assay: Antibacterial spectra in vitro, MIC on agar plates; type: cell-based; settings: IFM No. 2054, glucose (0.5%) agar, 37° C., 24 hours
[8] = tested on: Streptococcus pyogenes 090 R; assay: Antibacterial spectra in vitro, MIC on agar plates; type: cell-based
Lewis lung cancer [9] = assay: Effect against metastasis of Lewis lung cancer (foot pad inoculation, leg amputation); type: in vivo, BDF1 mice; settings: 40 micrograms/mouse/day for 10 days i.p.; seven days after last administration; control: abundant metastasis
Procedure: In another test, the effect of saframycin Yd-1 against metastasis of Lewis lung cancer was determined in the following manner:
The foot pads of the left hind legs of BDF1 mice having a body weight of 20 g were subcutaneously inoculated with 1.5×10^5 Lewis lung cancer cells. After seven days the legs were amputated.
(§4) A physiological sodium chloride solution was administered intraperitoneally to the control group while saframycin Yd-1 was given at a dose of 40 micrograms/mouse/day for 10 days i.p. to the group to be treated. Seven days after the last administration, the mice were sacrificed and the spread of metastasis in the lungs was compared. […] In anther experiment, the effect against Lewis lung cancer was evaluated according to the guidelines of the USA Cancer Institute (R. L. Geran et al. Cancer Chemotherapy Reports, Part 3, Vol. 3, No. 2 (1972)).

Lewis lung cancer [10] = assay: Effect against Lewis lung cancer according to guidelines of the USA Cancer Institute; type: in vivo; settings: 20 micrograms/mouse/day intraperitoneally for 10 days
Procedure: as §4

COC1=C(C)C(=O)C2=C(C1=O)C1C3CC4=C(C(=O)C(OC)=C(C)C4=O)C(CNC(=O)C(C)N)N3C(C#N)C(C2)N1C (stereo not drawn) [Saframycin Y3] gave an MIC (Mycobacterium phlei) of 50 µg/mL (≈ 88.7 µM), an MIC [1] of 1 µg/mL (≈ 1.77 µM) and an MIC [2] of 10 µg/mL (≈ 17.7 µM). The MIC (Bacillus cereus) was 50 µg/mL (≈ 88.7 µM), the IC50 (mouse leukaemia L 1210) was 0.0016 µg/mL (≈ 0.00284 µM) and the MIC (Streptococcus faecalis) was 10 µg/mL (≈ 17.7 µM). For the same compound, the MIC (Penicillium expansum) was greater than 100 µg/mL, the “survival effect compared with critical level of effectiveness prescribed by the research institute” value (mouse leukemia L 1210) was “exceed the critical level of effectiveness” and the “survival effect [T/C×100]” value (mouse leukemia L 1210) was 130%. It also gave an MIC (Shigella dysenteria) of 10 µg/mL (≈ 17.7 µM), an MIC (Sarcina lutea) of 1 µg/mL (≈ 1.77 µM) and an MIC [3] of 0.1 µg/mL (≈ 0.177 µM). It also gave an MIC (Brucella abortus) of 1 µg/mL (≈ 1.77 µM), an MIC (Klebsiella pneumoniae) of 10 µg/mL (≈ 17.7 µM) and an MIC (Salmonella typhimurium) of 50 µg/mL (≈ 88.7 µM). For the same compound, the MIC (Serratia marcescens) was 50 µg/mL (≈ 88.7 µM), the MIC [4] was greater than 100 µg/mL and the MIC (Saccharomyces cerevisiae) was greater than 100 µg/mL. For the same compound, the “mice survived for 20 days or more” value ([5]; 5 micrograms/mouse/day) was 60-70%, the mice survived [5] was “all mice survived” and the MIC (Staphylococcus albus) was 1 µg/mL (≈ 1.77 µM). It also gave an MIC (Corynebacterium xeriosis) of 1 µg/mL (≈ 1.77 µM), an MIC (Streptococcus salivarius) of 50 µg/mL (≈ 88.7 µM) and an MIC (Rhodotorula glutinus) greater than 100 µg/mL. For the same compound, the MIC (Staphylococcus citreus) was 0.1 µg/mL (≈ 0.177 µM), the MIC (Nocardia asteroides) was 50 µg/mL (≈ 88.7 µM) and the MIC (Candida albicans 7N) was greater than 100 µg/mL. For the same compound, the MIC (Aspergillus niger) was greater than 100 µg/mL, the MIC (Escherichia coli F1) was 50 µg/mL (≈ 88.7 µM) and the MIC [6] was less than 0.001 µg/mL. For the same compound, the MIC [7] was less than 0.001 µg/mL, the MIC (Mycobacterium sp. 607) was greater than 100 µg/mL and the MIC (Pseudomonas aeruginosa) was greater than 100 µg/mL. It also gave an MIC (Aspergillus oryzae) greater than 100 µg/mL, an MIC (Mycobacterium avium) of 50 µg/mL (≈ 88.7 µM) and an MIC ([8]; IFM No. 2006, glucose (0.5%) agar, 37° C., 24 hours, read-out: MIC) of 0.1 µg/mL (≈ 0.177 µM).

In the case of CCC(N)C(=O)NCC1C2=C(CC3C4C5=C(CC(C(C#N)N13)N4C)C(=O)C(C)=C(OC)C5=O)C(=O)C(C)=C(OC)C2=O (stereo not drawn) [Saframycin Yd-1], the MIC (Mycobacterium phlei) is reported as 50 µg/mL (≈ 86.6 µM), the MIC [1] is reported as 1 µg/mL (≈ 1.73 µM) and the “spread of metastasis in the lungs” value (Lewis lung cancer [9]) is reported as “metastasis was scarcely observed”. The MIC [2] was 1 µg/mL (≈ 1.73 µM), the MIC (Bacillus cereus) was 50 µg/mL (≈ 86.6 µM) and the IC50 (mouse leukaemia L 1210) was 0.002 µg/mL (≈ 0.00346 µM). The MIC (Streptococcus faecalis) was 10 µg/mL (≈ 17.3 µM), the MIC (Penicillium expansum) was greater than 100 µg/mL and the “survival effect compared with critical level of effectiveness prescribed by the research institute” value (mouse leukemia L 1210) was “exceed the critical level of effectiveness”. The “survival effect [T/C×100]” value (mouse leukemia L 1210) was 140%, the MIC (Shigella dysenteria) was 10 µg/mL (≈ 17.3 µM) and the MIC (Sarcina lutea) was 1 µg/mL (≈ 1.73 µM). The MIC [3] was 1 µg/mL (≈ 1.73 µM), the MIC (Brucella abortus) was 1 µg/mL (≈ 1.73 µM) and the MIC (Klebsiella pneumoniae) was 10 µg/mL (≈ 17.3 µM). For the same compound, the MIC (Salmonella typhimurium) was 50 µg/mL (≈ 86.6 µM), the MIC (Serratia marcescens) was 50 µg/mL (≈ 86.6 µM) and the “T/C×100” value (Lewis lung cancer [10]) was no less than 140%. The “preventing effect against cancer metastasis as compared to saframycin A” value (Lewis lung cancer [10]) was “higher preventing effect”, the MIC [4] was greater than 100 µg/mL and the MIC (Saccharomyces cerevisiae) was greater than 100 µg/mL. For the same compound, the “mice survived for 20 days or more” value ([5]; 4 micrograms/mouse/day) was 60-70%, the mice survived [5] was “all mice survived” and the MIC (Staphylococcus albus) was 10 µg/mL (≈ 17.3 µM). For the same compound, the MIC (Corynebacterium xeriosis) was 1 µg/mL (≈ 1.73 µM), the MIC (Streptococcus salivarius) was 50 µg/mL (≈ 86.6 µM) and the MIC (Rhodotorula glutinus) was greater than 100 µg/mL. The MIC (Staphylococcus citreus) was 0.1 µg/mL (≈ 0.173 µM), the MIC (Nocardia asteroides) was 1 µg/mL (≈ 1.73 µM) and the MIC (Candida albicans 7N) was greater than 100 µg/mL. The MIC (Aspergillus niger) was greater than 100 µg/mL, the MIC (Escherichia coli F1) was 50 µg/mL (≈ 86.6 µM) and the MIC [6] was less than 0.001 µg/mL. The MIC [7] was less than 0.001 µg/mL, the MIC (Mycobacterium sp. 607) was greater than 100 µg/mL and the MIC (Pseudomonas aeruginosa) was greater than 100 µg/mL. For the same compound, the MIC (Aspergillus oryzae) was greater than 100 µg/mL, the MIC (Mycobacterium avium) was 50 µg/mL (≈ 86.6 µM) and the MIC ([8]; 24 h) was 0.01 µg/mL (≈ 0.0173 µM).

Source: patent US4837149A, “Novel saframycin A derivatives and process for producing the same” (priority 1984, dated 1989)
